# Data: ChEMBL document CHEMBL1201862, “PubChem BioAssay data set” (2004)
#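 Following 48 hours of exposure in 96-well plates, responses at five concentrations were used to interpolate endpoints linearly. GI50 = concentration required for 50% inhibition of growth.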 Active and inactive are the calls of the source. Rule as the data show it: active = GI50 up to about 1.1 µM and inactive = higher.
# How the values were obtained:
# Experiment in all cases: inhibition of tumour cell growth, NCI panel, 48 h
# SF-268 = system: SF-268
# MDA-N = system: MDA-N
# LOX IMVI = system: LOX IMVI
# ACHN = system: ACHN
# CAKI-1 = system: CAKI-1
# SNB-75 = system: SNB-75
# SF-295 = system: SF-295
# A549 = system: A549
# SF-539 = system: SF-539
# COLO 205 = system: COLO 205
# SN12C = system: SN12C
# Malme-3M = system: Malme-3M
# RPMI-8226 = system: RPMI-8226
# MOLT-4 = system: MOLT-4
# K562 = system: K562
# 786-0 = system: 786-0
# SW-620 = system: SW-620
# OVCAR-4 = system: OVCAR-4
# T47D = system: T47D
Compound,GI50 (SF-268),GI50 (MDA-N),GI50 (LOX IMVI),GI50 (ACHN),GI50 (CAKI-1),GI50 (SNB-75),GI50 (SF-295),GI50 (A549),GI50 (SF-539),GI50 (COLO 205),GI50 (SN12C),GI50 (Malme-3M),GI50 (RPMI-8226),GI50 (MOLT-4),GI50 (K562),GI50 (786-0),GI50 (SW-620),GI50 (OVCAR-4),GI50 (T47D)
Nc1nc(N)c2nnn(C[C@H]3CC[C@@H](CO)C3)c2n1,> 100 µM (inactive),> 100 µM (inactive),> 100 µM (inactive),> 100 µM (inactive),> 100 µM (inactive),> 100 µM (inactive),> 100 µM (inactive),> 100 µM (inactive),> 100 µM (inactive),> 100 µM (inactive),38.5 µM (inactive),> 100 µM (inactive),> 100 µM (inactive),> 100 µM (inactive),> 100 µM (inactive),> 100 µM (inactive),> 100 µM (inactive),,
O=C1NC(=O)C2C1c1[nH]c3ccccc3c1C1CCCC12 (stereo unspecified),4.02 µM (inactive),,3.52 µM (inactive),22.3 µM (inactive),,2.17 µM (inactive),1.29 µM (inactive),0.916 µM (active),3.03 µM (inactive),4.23 µM (inactive),6.87 µM (inactive),2.52 µM (inactive),3.41 µM (inactive),2.44 µM (inactive),0.48 µM (active),5.02 µM (inactive),0.951 µM (active),25.6 µM (inactive),
Fc1nc(-c2c3ccccc3c3sc4ccccc4n23)nc(N2CCOCCOCCOCCOCC2)n1,> 100 µM (inactive),> 100 µM (inactive),> 100 µM (inactive),> 100 µM (inactive),> 100 µM (inactive),2.56 µM (inactive),63 µM (inactive),> 100 µM (inactive),21.6 µM (inactive),> 100 µM (inactive),> 100 µM (inactive),> 100 µM (inactive),> 100 µM (inactive),66.4 µM (inactive),> 100 µM (inactive),32.8 µM (inactive),> 100 µM (inactive),> 100 µM (inactive),
c1csc(-c2cscc2-c2cccs2)c1,> 100 µM (inactive),,43.2 µM (inactive),> 100 µM (inactive),> 100 µM (inactive),69.2 µM (inactive),32.9 µM (inactive),39.4 µM (inactive),20.3 µM (inactive),50.8 µM (inactive),> 100 µM (inactive),,43.6 µM (inactive),34.5 µM (inactive),37.3 µM (inactive),43.6 µM (inactive),48.3 µM (inactive),46 µM (inactive),> 100 µM (inactive)
CC(=O)OC1=C(CC(C)(C)C)C(=O)c2ccccc2C1=O,21.6 µM (inactive),,47.5 µM (inactive),35.6 µM (inactive),48.4 µM (inactive),27.4 µM (inactive),22.7 µM (inactive),,26.5 µM (inactive),23.6 µM (inactive),,,17.1 µM (inactive),,18.5 µM (inactive),39.6 µM (inactive),33 µM (inactive),37.8 µM (inactive),44.2 µM (inactive)
[O-][n+]1c2ccccc2[n+]([O-])c2ccccc21,> 100 µM (inactive),,> 100 µM (inactive),61 µM (inactive),> 100 µM (inactive),> 100 µM (inactive),> 100 µM (inactive),38 µM (inactive),> 100 µM (inactive),15.6 µM (inactive),> 100 µM (inactive),> 100 µM (inactive),16.8 µM (inactive),2.74 µM (inactive),> 100 µM (inactive),> 100 µM (inactive),> 100 µM (inactive),> 100 µM (inactive),35.3 µM (inactive)
CN(C)CCNC1=CC(=O)c2nc3ccccc3c3ccnc1c23,4.53 µM (inactive),7.78 µM (inactive),2.04 µM (inactive),3.05 µM (inactive),4.02 µM (inactive),13.1 µM (inactive),4.47 µM (inactive),4.52 µM (inactive),3.98 µM (inactive),2.75 µM (inactive),6.49 µM (inactive),3 µM (inactive),5.47 µM (inactive),2.48 µM (inactive),1.19 µM (inactive),2.81 µM (inactive),4.42 µM (inactive),3.57 µM (inactive),
CCOC(=O)c1c(-c2ccc(Cl)cc2)c(C#N)c(=S)n(C2OC(COC(C)=O)C(OC(C)=O)C(OC(C)=O)C2OC(C)=O)c1C (stereo unspecified),> 100 µM (inactive),> 100 µM (inactive),> 100 µM (inactive),> 100 µM (inactive),> 100 µM (inactive),0.689 µM (active),> 100 µM (inactive),> 100 µM (inactive),> 100 µM (inactive),> 100 µM (inactive),> 100 µM (inactive),> 100 µM (inactive),,> 100 µM (inactive),> 100 µM (inactive),> 100 µM (inactive),> 100 µM (inactive),90.2 µM (inactive),> 100 µM (inactive)
CN(C)/C=C/C(=CC=[N+](C)C)/C=C/N(C)C.[O-][Cl+3]([O-])([O-])[O-],> 100 µM (inactive),,57 µM (inactive),> 100 µM (inactive),70.3 µM (inactive),,> 100 µM (inactive),> 100 µM (inactive),> 100 µM (inactive),,> 100 µM (inactive),> 100 µM (inactive),> 100 µM (inactive),90.4 µM (inactive),> 100 µM (inactive),> 100 µM (inactive),> 100 µM (inactive),> 100 µM (inactive),
CC(C)C(/C=C/c1ccc(Cl)c(Cl)c1)=N\NC(=O)N/N=C(/C=C/c1ccc(Cl)c(Cl)c1)C(C)C,> 100 µM (inactive),> 100 µM (inactive),> 100 µM (inactive),> 100 µM (inactive),> 100 µM (inactive),> 100 µM (inactive),> 100 µM (inactive),,> 100 µM (inactive),> 100 µM (inactive),> 100 µM (inactive),> 100 µM (inactive),> 100 µM (inactive),> 100 µM (inactive),> 100 µM (inactive),> 100 µM (inactive),> 100 µM (inactive),> 100 µM (inactive),
CCOC(=O)C1C(c2ccc3c(c2)OCO3)c2c(n[nH]c2O)CC1(O)OCC (stereo unspecified),> 100 µM (inactive),,> 100 µM (inactive),> 100 µM (inactive),> 100 µM (inactive),> 100 µM (inactive),> 100 µM (inactive),> 100 µM (inactive),> 100 µM (inactive),> 100 µM (inactive),> 100 µM (inactive),> 100 µM (inactive),> 100 µM (inactive),> 100 µM (inactive),,> 100 µM (inactive),> 100 µM (inactive),> 100 µM (inactive),> 100 µM (inactive)
COc1nc(SC)nc2c1C(O)n1c(nc3ccccc31)S2 (stereo unspecified),18.4 µM (inactive),40.4 µM (inactive),34.6 µM (inactive),18.4 µM (inactive),41.3 µM (inactive),,20.7 µM (inactive),28.6 µM (inactive),,,24.3 µM (inactive),40 µM (inactive),0.42 µM (active),4.15 µM (inactive),13.7 µM (inactive),6.65 µM (inactive),9.14 µM (inactive),17.4 µM (inactive),
Cc1ncc(CSC(=N)N)n1Cc1ccccc1,> 100 µM (inactive),38.2 µM (inactive),,> 100 µM (inactive),84.1 µM (inactive),,63.7 µM (inactive),> 100 µM (inactive),43.6 µM (inactive),33.1 µM (inactive),43.5 µM (inactive),54.5 µM (inactive),27.5 µM (inactive),,66.8 µM (inactive),46 µM (inactive),45.5 µM (inactive),83 µM (inactive),26.1 µM (inactive)
S=C(Nc1ccc(Cl)cc1)c1ccc(CN2CCCCC2)s1,36.3 µM (inactive),2.94 µM (inactive),2.48 µM (inactive),4.93 µM (inactive),12.2 µM (inactive),,,0.811 µM (active),24.9 µM (inactive),2.68 µM (inactive),11.9 µM (inactive),,3.02 µM (inactive),2.77 µM (inactive),2.09 µM (inactive),4.25 µM (inactive),4.4 µM (inactive),12.5 µM (inactive),
O[C@H]1[C@H](O)[C@H](O)CN2CCC[C@@H](O)[C@H]12,> 100 µM (inactive),,> 100 µM (inactive),> 100 µM (inactive),> 100 µM (inactive),81.1 µM (inactive),> 100 µM (inactive),> 100 µM (inactive),> 100 µM (inactive),> 100 µM (inactive),> 100 µM (inactive),,> 100 µM (inactive),> 100 µM (inactive),> 100 µM (inactive),> 100 µM (inactive),> 100 µM (inactive),> 100 µM (inactive),> 100 µM (inactive)
Cc1c(C(=O)Nc2ccccc2)nnn1-c1ccnc2cc(C(F)(F)F)ccc12,78.9 µM (inactive),33.3 µM (inactive),28.6 µM (inactive),54.7 µM (inactive),37.5 µM (inactive),34.4 µM (inactive),46.7 µM (inactive),89.5 µM (inactive),> 100 µM (inactive),55 µM (inactive),53.2 µM (inactive),37 µM (inactive),,34 µM (inactive),37.2 µM (inactive),74 µM (inactive),> 100 µM (inactive),34.5 µM (inactive),32.4 µM (inactive)
